In data set [1] the test system is THP-1 cell adhesion to IL-1-activated HUVEC. The data set is described as follows: THP-1 cell adhesion to activated HUVEC. The data set is classed as cell-based, human. The following applies: IL-1 (10 ng/ml), 8 hours. The procedure:
This example illustrates inhibitive activity of compounds nos. 50 and 57 on THP-1 cell adhesion to IL-1-activated HUVEC. In an investigative assay, HUVEC were stimulated with IL-1 (10 ng/ml), both in the absence and presence of varying concentrations of drugs for 8 hours in a 96-well microtiter plate. In the wellplate, human monocytic leukemia cell line THP-1 cells were added at 50,000 cells per well. The THP-1 cells were pre-incubated with BCECF, a fluorescence dye that can be used to measure cell number using a fluorescence plate reader. After 10 minutes at 37 °C, the microtiter plate was inverted and spun at 900 rpm. The remaining adhering THP-1 cells were then analyzed.
Inventive compound no. […] HUVEC were stimulated with 20 ng/ml IL-1β or 15 ng/ml TNFα for 6 hours. Fluorescence labeled (BCECF-AM) THP-1 cells were allowed to adhere to the HUVEC for 20 minutes, washed once and the amount of fluorescence remaining analyzed on a fluorescence plate reader. The results, reported in figures 62A and 62B (TNFα or IL-1β, respectively), show inhibition of THP-1 adhesion to HUVEC.
Figures 72A and 72B illustrate that inventive compound no. 58 inhibited THP-1 cell adhesion to either TNF or IL-1-stimulated HUVEC, respectively. Procedurally, HUVEC were stimulated with TNF or IL-1 for 8 hours and THP-1 cells added for 20 minutes. The HUVEC were then washed and analyzed for adherence. Inventive compound no. 58 inhibited adhesion of THP-1 cells to HUVEC with an IC50 of approximately 1 µM for both TNF and IL-1.

In data set [2] the test system is CMV promoter activity. The data set is described as follows: microbe, parasite or virus in culture. Format: cell-based. The following applies: transformed (adenovirus) cells. An excerpt: This example illustrates data of proliferative activity of various inventive compounds for inducing CMV promoter activity. The CMV promoter assay measures gene transcription and translation activity wherein any active compounds will have cytotoxic activity for inhibiting cellular protein synthesis in transformed (adenovirus) cells. Compound no. […]

Data set [3] relates to mast cell degranulation. The data set is described as follows: Serotonin release assay for inhibition of mast cell degranulation. Format: cell-based. An excerpt: This assay provides an in vitro model for an allergy and asthma therapeutic product. […]
The test system of data set [4] is mixed lymphocyte reaction assay culture. Description: Cell percent viability in mixed lymphocyte reaction culture. The data set is classed as cell-based. The following applies: 100 µM, six days of cell culture. How it is done:
Cell percent viability in mixed lymphocyte reaction assay culture was determined after six days of cell culture. […] Control cells unexposed to drugs are generally 78 to 85% viable under these culture conditions. In this assay, all inventive compounds were present at 100 µM concentrations, generally well above corresponding IC50 values in this assay (see fig. 2D). […] Compounds nos.

Data set [5] deals with proliferative PMBC response to allogeneic stimulation. Description: Two-way mixed lymphocyte reaction. Format: cell-based. From the text: This example illustrates therapeutic potential for various autoimmune and inflammatory diseases of the inventive compounds by comparing potency (inhibitive activity) with cytotoxicity data obtained using the following indicative assay procedures. In a mixed lymphocyte reaction assay of compounds nos. […] Compounds nos. […] 2A and 2B. Both compounds nos. […] 2C.
Compound no. […] Compound no.

Data set [6] concerns murine thymocyte proliferation. The data set is described as follows: Thymocyte proliferation co-stimulated by ConA and IL-2 (tritiated thymidine). The data set is classed as cell-based, Balb/C mice. How it is done: ConA, used to activate CD3, induces T-cell proliferation and differentiation. Thymuses, obtained from normal, female Balb/C mice, were dissociated and plated into 96-well plates at a density of 2 x 10^5 cells/well. ConA (0.25 mg/ml) and IL-2 (15 U/ml) were added to the wells. The cells were incubated for 4 days at 37°C. On day 4, the cells were pulsed with tritiated thymidine and incubated for an additional 4 hours. The amount of tritiated thymidine dye incorporated by the harvested cells was determined in a liquid scintillation counter. Drug doses (shown in figs. 1A and 1B) were added two hours prior to ConA and IL-2 activation.
Thymuses, obtained from normal, female Balb/C mice, were dissociated and plated into 96-well plates at a density of 2 x 10^5 cells/well. ConA (0.25 mg/ml) and IL-2 (15 U/ml) were added to the wells. The cells were incubated for 4 days at 37 °C. On day 4, the cells were pulsed with tritiated thymidine and incubated for an additional 4 hours. The amount of tritiated thymidine dye incorporated by the harvested cells was determined in a liquid scintillation counter. Doses (shown in figs. 26A, 26B and 26C) were added two hours prior to ConA and IL-2 activation.
In another in vitro protocol, thymocyte proliferation was induced by sub-mitogenic doses of Con A (0.25 µg/ml) and IL-2 (20 ng/ml). Cells were stimulated for 96 hours, prior to addition of ^3H-TdR for 4 hours. The cells were harvested and incorporation of ^3H-TdR was determined.
45 on co-stimulated thymocyte proliferation. In an assay procedure, murine thymocytes were stimulated with ConA and IL-2 with 1 µM compound no. 45 added either 1 hour prior to IL-2 (-1), simultaneous with IL-2 (0) or at various times following IL-2 addition (1-92 hour). At 92 hours the thymocytes were pulsed with ^3H-TdR, harvested and counted by scintillation 4 hours later.

Data set [7] deals with murine thymocyte proliferation. Description: Thymocyte proliferation stimulated by Con A and IL-1α. Format: cell-based. The following applies: Mus musculus, 2 h, added two hours prior to Con A and IL-1α. The procedure:
In a first part of this example, compounds nos. 30, 33, 28 and 27 (see above for chemical names and structures) show effective inhibition of murine thymocyte proliferation stimulated by Con A and interleukin 1 alpha (IL-1α). Compounds nos. 30, 33, 28 and 27 were added to cell cultures two hours prior to activation with Con A and IL-1α in a thymocyte co-stimulation procedure akin to that discussed in example 21. […] IC50 values determined for each inventive compound tested are as follow: compound no. […] Background counts in the assay were less than 200 cpm.

Data set [8] relates to murine splenocyte proliferation. The data set is described as follows: Splenocyte (B cell) proliferation stimulated by anti-mu/anti-IgM and IL-4. The note with it: Mus musculus, anti-mu and IL-4 12.5 ng/ml. Format: cell-based. How it is done: This example illustrates inhibitive effects of compounds nos. 27 and 28 on murine splenocyte proliferation stimulated by anti-mu ([…]) and interleukin-4 (IL-4, 12.5 ng/ml). This in vitro assay, described above, is indicative of immune-suppressive/autoimmune treatment assay emphasizing humoral or B cell immune response. The inventive compound was added to the cells at the doses indicated two hours prior to activation with anti-mu and IL-4. Both compounds nos. 27 and 28 inhibited splenocyte proliferation in a dose-response manner. IC50 values for compounds nos. Background counts were less than 200 cpm.
In figure 57, results shown illustrate that inventive compound no. 45 inhibits B cell proliferation. Murine splenocytes were stimulated with anti-IgM antibodies (10 µg/ml) and murine IL-4 (12.5 ng/ml). Cells were pulsed with ^3HTdR at 44 hours, harvested 4 hours later, and the incorporation of ^3H-TdR was determined by liquid scintillation.

The subject of data set [9] is PDGF/IL-1 co-stimulation, proliferation. The data set is described as follows: PDGF/IL-1 co-stimulation proliferation assay. The data set is classed as cell-based. The following applies: fig. 14. An excerpt:
The PDGF/IL-1 assay is useful in measuring in vitro activity, indicative of therapeutic potential for treating or preventing restenosis and reperfusion. Figure 14 reports IC50 bar graph results for a group of inventive compounds nos. 27, 28, 32, 30, 31, 32 and 34. In this predictive, in vitro model, compounds nos.

In data set [10] the test system is Human stromal cells. The data set is described as follows: Stromal cell proliferation in response to PDGF-BB. Format: cell-based. The following applies: 50 ng/ml PDGF-BB. The procedure: This assay is useful for predicting therapeutic activity for preventing or treating restenosis, atherosclerosis and coronary artery disease. Human stromal cells were starved in serum-free media for one day and then stimulated with 50 ng/ml PDGF-BB. Inventive compounds, at various concentrations, were added one hour prior to PDGF stimulation. PDGF and tritiated thymidine were added and the cells allowed to incubate for one day, following addition of the PDGF and thymidine. 24 Hours later, the cells were harvested and counted by liquid scintillation counting. Results for compounds nos. Background counts (i.e., starved cells) were approximately 1% of control levels. […] 30, 28, 29, 32 and 31, respectively.

The subject of data set [11] is Saccharomyces cervisiae. Description: Yeast growth assay (anti-yeast and anti-fungal activity). The data set is classed as cell-based. The note with it: 100 µM. How it is done: This example illustrates the effects of a reference compound "X", and inventive compounds nos. 29, 30, 31, 32 and 33 (see above for names and structures) on yeast growth (Saccharomyces cervisiae)--using 100 µM concentrations--as compared with yeast activity in the absence of any compound additive (control). This assay measured anti-yeast and anti-fungal activity of the inventive compounds tested.

The subject of data set [12] is mouse thymocytes. Description: Con A priming followed by IL-2 restimulation of thymocytes. Format: cell-based. How it is done:
In a proliferation assay, mouse thymocytes were pre-incubated overnight with Con A (a "priming step"), washed, and restimulated with IL-2 in […] of inventive compounds. On day 4, the cells were pulsed with tritiated thymidine and allowed to incubate for an additional 4 hours. The cells were harvested and the amount of tritiated thymidine incorporated by the harvested cells was determined in a liquid scintillation counter. […] 3.
On day 4, the cells were pulsed with tritiated thymidine and allowed to incubate for an additional 4 hours. The cells were harvested and the amount of incorporated tritiated thymidine was determined in a liquid scintillation counter.

Data set [13] relates to murine cytotoxic T-cell line, CT6. Description: Cytokine-induced proliferation of the cytotoxic T-cell line CT6 / CT-6.1. Format: cell-based. The note with it: murine IL-2 (15 U/ml), figs. 21C and 21D. The procedure:
Another assay in this example was used to determine inhibitive activity of the inventive compounds on direct IL-2-induced proliferation in a murine cytotoxic T-cell line, CT6. The CT6 cell line is an IL-2-dependent cell line. IL-2 was removed from the medium for 24 hours prior to stimulation. […] 49, 50, 45, 43 or 41 were added at various concentrations. The cells were stimulated with IL-2 and amount of tritiated thymidine dye incorporated was measured 48 hours later.
In another related assay, inhibitory effects on CT6 cell proliferation is examined. CT6 cells are a murine IL-2 dependent, cytotoxic T cell line that proliferate in response to murine IL-2 (15 U/ml).
CT-6.1 cells were starved overnight and stimulated with IL-2 (20 ng/ml). Twenty hours later, cells were labeled for 4 hours with ^3H-TdR and counted by liquid scintillation.
CT6.1 cells were cultured with IL-2 with or without the addition of inventive compound no. 45 (2 µM) and viable cells counted for up to 8 days. On day 4, two cultures previously incubated with compound no. 45, were washed and recultured with fresh IL-2 with or without compound no. 45 (2 µM).
Procedurally, CT-6.1 cells were starved overnight and stimulated with either IL-2 (20 ng/ml), IL-4 (50 ng/ml) or IL-7 (25 ng/ml). ^3H-TdR was added at 20 hours, cells were harvested 4 hours later, and the incorporation of ^3H-TdR was determined.

As for `Cn1cnc2c1c(=O)n(CCCCCCCCCC(O)CNCc1ccc(N)cc1)c(=O)n2C` (stereo not drawn) [compound 57, 1-[11-(4-Aminobenzylamino)-10-hydroxyundecyl]-3,7-dimethylxanthine], the “inhibition of THP-1 adhesion” value in [1] was “significantly inhibited THP-1 adhesion, even at low concentratations”.

Turning to `Cn1cnc2c1c(=O)n(CCCCC(O)CNCc1ccccc1)c(=O)n2C` (stereo not drawn) [compound no. 13, 1-(5-hydroxy-6-(N-benzyl)aminohexyl)-3,7-dimethylxanthine], the half-inhibitory concentration (IC50) in data set [2] is greater than 500 µM; in [5] (Lymphocyte, figs. 2A-2C) it was 55 µM. This compound gave an inhibition at 100 µM in [3] (Mast cell, Concentration 100 µM) of 28%. The “cytotoxicity (percent viability)” value in data set [4] is “little or no cytotoxicity”.

Consider `CCCCCCCCNCC(O)CCCCn1c(=O)c2c(ncn2C)n(C)c1=O` (stereo not drawn) [compound no. 28, 1-(5-hydroxy-6-(N-octyl)aminohexyl)-3,7-dimethylxanthine], for which the IC50 is 50 µM in [2], 4.6 µM in [7], 5.2 µM in data set [8] and 3.2 µM in [10]. In data set [4], the “cytotoxicity (percent viability)” value was “the most cytotoxic at 100 µM”. In addition, the “inhibition of thymocyte proliferation” value in [6] (ConA and IL-2 co-stimulation) is given as “the most potent immune-suppressive effects”. The inhibitive activity entry in [9] was “potent inhibitive activity”. Moreover, the immune suppression activity result in [5] (fig. 2D) is listed as “the most potent compound of those assayed”.

As for `CCCCCCN(CCCCCC)CC(O)CCCCn1c(=O)c2c(ncn2C)n(C)c1=O` (stereo not drawn) [compound no. 33, 1-(5-hydroxy-6-(N,N-dihexyl)aminohexyl)-3,7-dimethylxanthine], the IC50 is 100 µM in data set [2] and 8.6 µM in data set [7]. Further, in data set [11], the yeast-growth inhibitive activity entry is recorded as “showed yeast-growth inhibitive activity”.

In the case of `CCCCCCCCNCC(O)CCCCCCCn1c(=O)c2c(ncn2C)n(C)c1=O` (stereo not drawn) [compound no. 35, 1-(8-hydroxy-9-(N-octyl)aminononyl)-3,7-dimethylxanthine], the “% Inhibition” value in [3] (Concentration 50 µM) is on record as “too toxic”. Also, the “inhibition of thymocyte proliferation, compound added with IL-2” value in data set [12] (Con A pre-treated cells, 1µM) was “dramatically inhibited thymocyte proliferation”. Also, the “proliferation in response to IL-2 after compound present during Con A priming” value in [12] (compound during overnight Con A incubation, IL-2 without compound) was “normal thymocyte proliferation in response to IL-2 stimulation”. Moreover, the “IC50 values (range in words)” value in data set [6] (figs. 21A and 21B) is recorded as “low micromolar”. In addition, the “inhibition of IL-2-induced proliferation” value in [13] is reported as “exhibited no activity in this assay”.

For orientation: IC50 means the concentration at which inhibition is half-maximal. Low values mean higher potency, high ones lower potency. Broadly, the inhibition is how much of the control response was suppressed.

(Values after patent EP0719267B1, “SECOND MESSENGER CELL SIGNALING INHIBITORS” (CELL THERAPEUTICS, INC., priority 1993, dated 1994).)
